This assay concerns the target T1, PSMA (Homo sapiens, UniProt Q04609).
T1 construct: host or cells: LNCaP human prostate cancer cells
Description: Competitive binding assay (IC50) on LNCaP cells with ([125I]I-BA)KuE as radioligand. The note with it: ([125I]I-BA)KuE 0.2 nM, HBSS (1% BSA), 4 °C, 1 h. On the procedure:
PSMA-positive LNCaP cells (300265; Cell Lines Service, Eppelheim, Germany) were cultivated in Dulbecco’s modified Eagle medium/Nutrition Mixture F-12 with GlutaMAX (1/1, DMEM-F12, Thermo Fisher Scientific, Darmstadt, Germany) supplemented with 10% fetal bovine serum (Merck KGaA, Darmstadt, Germany) and kept at 37 °C in a humidified 5% CO2 atmosphere. One day (24 ± 2 h) prior to all in vitro experiments, the cultivated LNCaP cells were harvested using a mixture of trypsin/ethylenediamine-tetraacetic acid (0.05%/0.02%) in PBS (Thermo Fisher Scientific, Darmstadt, Germany) and centrifuged at 1300 rpm (ca. 190×g) for 3 min at room temperature (Heraeus Megafuge 16, Thermo Fisher Scientific, Darmstadt, Germany). After centrifugation, the supernatant was disposed and the cell pellet was resuspended in culture medium. Cells were counted with a Neubauer hemocytometer (Paul Marienfeld GmbH & Co. KG, Lauda-Königshofen, Germany) and seeded in 24-well plates.
Detailed information on affinity and internalization experiments is provided in the supporting information. […] IC50 values of (^natI-BA)KuE were determined on the same day for monitoring assay performance and to identify abnormal deviations in uptake and/or affinity. […] Data were corrected for non-specific binding and normalized to the specific internalization observed for the radioiodinated reference compound (n = 3).
The culture medium was removed and the cells were washed with 500 µL of Hank’s balanced salt solution (HBSS) (Merck KGaA, Darmstadt, Germany), containing 1% bovine serum albumin (BSA) (Merck KGaA, Darmstadt, Germany). Afterwards, 200 µL of HBSS (1% BSA) were added to each well and equilibrated on ice (4 °C) for 15 min. […] Experiments were carried out in triplicates for each concentration. The final concentrations of unlabeled ligand ranged from 10^-11 - 10^-5 M and the final radioligand concentration was 0.2 nM in all binding assays. The cells were incubated for one hour at 4 °C. Incubation was terminated by removal of the incubation medium. The cells were washed with 250 µL of HBSS (1% BSA) and the wash medium was combined with the respective supernatant. This fraction represents the amount of free radioligand. The cells were lysed by addition of 250 µL of 1 M aqueous NaOH. The lysate of each well was transferred to the respective vial as well as 250 µL of 1 M NaOH used for rinsing the well. Quantification of the amount of free and bound activity was performed in a γ-counter. The corresponding IC50 values were calculated using the GraphPad PRISM7 software.

SMILES strings stand for the structures.

T1 sequence (Q04609 whole entry): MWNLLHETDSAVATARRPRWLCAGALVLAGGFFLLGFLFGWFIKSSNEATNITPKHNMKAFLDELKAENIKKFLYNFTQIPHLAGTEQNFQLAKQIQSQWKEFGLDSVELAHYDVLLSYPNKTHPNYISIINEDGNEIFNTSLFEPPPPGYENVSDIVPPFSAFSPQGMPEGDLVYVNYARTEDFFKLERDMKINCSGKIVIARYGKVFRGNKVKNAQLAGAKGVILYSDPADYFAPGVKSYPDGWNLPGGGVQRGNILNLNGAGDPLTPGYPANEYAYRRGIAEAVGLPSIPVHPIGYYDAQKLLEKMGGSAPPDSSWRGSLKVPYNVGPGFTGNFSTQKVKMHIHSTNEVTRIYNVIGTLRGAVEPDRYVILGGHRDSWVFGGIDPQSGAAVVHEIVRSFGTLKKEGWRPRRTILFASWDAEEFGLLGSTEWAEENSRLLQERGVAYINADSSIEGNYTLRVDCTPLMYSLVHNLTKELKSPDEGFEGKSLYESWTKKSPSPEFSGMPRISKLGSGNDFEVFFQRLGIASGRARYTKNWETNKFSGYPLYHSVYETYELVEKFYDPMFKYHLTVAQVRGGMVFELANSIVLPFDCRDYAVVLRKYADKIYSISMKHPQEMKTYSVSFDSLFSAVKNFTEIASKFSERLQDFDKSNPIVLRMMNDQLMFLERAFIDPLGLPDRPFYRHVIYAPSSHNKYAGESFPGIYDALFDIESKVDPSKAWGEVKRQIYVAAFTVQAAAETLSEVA

As a reminder, the IC50 is the point on the concentration scale where inhibition reaches its midpoint. Higher therefore signals weaker potency. In turn, `CC(C)(C)[Si](F)(c1ccc(C(=O)NC[C@@H](NC(=O)CN2CCN(CC(=O)[O-])CCN(CC(=O)[O-])CCN(CC(=O)[O-])CC2)C(=O)N[C@H](CCCCNC(=O)CCC(=O)NCCC[C@@H](NC(=O)CC[C@H](NC(=O)N[C@@H](CCc2nnn[nH]2)C(=O)O)C(=O)O)C(=O)O)C(=O)O)cc1)C(C)(C)C.[Lu+3]` [^natLu/[^177Lu]Lu-11] showed a 50% inhibitory concentration (IC50) of 16.4 ± 3.8 nM.

The values above are taken from PMC7910394, “Design of PSMA ligands with modifications at the inhibitor part: an approach to reduce the salivary gland uptake of radiolabeled PSMA inhibitors?” (EJNMMI Radiopharmacy and Chemistry, 2021).
